Measurements as given in US8394629B2, “Use of vinca alkaloids and salts thereof” (Keio University, priority 2003, dated 2013).

Tests used:
[1] = test system: pancreatic acinar carcinoma AR42J-B13 cells; assay: Morphological change and trypan blue exclusion test of AR42J-B13 cells; assay type: cell-based, rat
Protocol: (§1) DMEM was sterilized by filtration after its pH was adjusted to 7.4 in the presence of 20 mM HEPES-NaOH. AR42J-B13 cells (endowed by Dr. Itaru Kojima, Institute for Cellular and Molecular Regulation, Gunma University) a highly sensitive subclone of AR42J, were cultured at 37° C. in a 5% CO2 incubator with 20 ml of culture medium DMEM supplemented with 100 mg/l kanamycin, 0.6 g/l glutamine, 100 unit/ml penicillin G, 5 mM NaHCO3, and 10% FBS. To prevent transformation due to a high density of the cells and to retain differentiation ability of the cells, the cells were transferred every 2 to 3 days to maintain 2.5% to 5% of confluency. The cell transfer was performed as follows: After the medium was removed, the cells were washed twice in PBS^− (Ca^2+, Mg^2+-free PBS; 8 g/l, NaCl, 0.2 g/l KCl, 0.916 g/Na2HPO4, 0.2 g/l KH2PO4). Subsequently, the cells were detached using 2 ml of trypsin-EDTA solution, and then trypsin was inactivated by addition of 8 ml of the medium. […]
Cells that had been prepared at a density of 4×10^5 cells/ml were plated at 500 μl per well on 24-well plates, followed by incubation at 37° C. in a 5% CO2 incubator. […] Further, the photograph was enlarged 2.5 times and a morphological change was defined as having occurred when the full length of a cell in the diameter became 1.5 times; thus, the rates of morphological changes were determined.

[2] = test system: streptozotocin-administered rats; assay: Blood glucose levels of streptozotocin-administered rats; assay type: in vivo, Wistar rats; settings: 5 μg/g BW subcutaneously for seven consecutive days from day 1 after streptozotocin; versus control; P<0.05 / P<0.01; FIG. 4
Protocol: Ten 1-day old Wistar rats (purchased from Japan SLC, Shizuoka, Japan) were intraperitoneally injected with streptozotocin (purchased from Wako Pure Chemical Industries, Ltd., dissolved in […] citrate buffer (pH 4.5)) at 85 μg/g BW per rat. Streptozotocin decreases insulin production by destroying pancreatic β cells, thereby inducing diabetes. The day of streptozotocin injection was defined as day 0, Starting from the next day (day 1), five rats were injected subcutaneously with a solution (ethanol) of conophylline at 5 μg/g BW for seven consecutive days and their random blood glucose levels were measured daily. Five rats in the control group received the same volume of solvent (Control).

[3] = test system: neonatal porcine pancreatic cells; assay: Immunostaining of insulin-producing cells in cultured neonatal porcine pancreatic cells (Experiment example I); assay type: cell-based, pig; settings: three weeks culture; nicotinamide 10 mM, HGF 10 ng/ml, conophylline 0.1 μg/ml; FIG. 2
Protocol: Neonatal pigs within 72 hours of birth were obtained from the (Takayama) pig farm. The whole pancreas (ventral and dorsal pancreas) was removed under general anesthesia immediately after animals were brought to the operating room. After elimination of connective tissue covering the removed pancreas and blood adhering to it, the pancreas was transferred to a 10 ml beaker and dissected into small pieces with ophthalmic scissors. The dissected pieces were transferred to a 100 ml conical flask, to which 50 to 60 ml of phosphate buffered saline (PBS) was added. After a 3 min rotation at 110 rpm on a low speed stirrer, the mixture was allowed to stand still and the supernatant was discarded. Then, 40 mL of phosphate buffered saline containing Liberase PI (Roche) at a concentration of 2.5 mg/ml was added. After an 8 min rotation at 110 rpm on a low speed stirrer, the mixture was allowed to stand still and the supernatant containing the cells was collected. The operation was repeated 5 times. The supernatant collected was centrifuged at 1200 rpm for 5 min. to collect cells. The cells collected in the centrifugal sedimentum was suspended in 25 to 50 ml of PBS, 25 ml of cell suspension was overlaid gently on 10 ml of Histopaque 1077 (Sigma), followed by centrifugation at 1800 rpm for 10 min. […]

[4] = test system: pancreatic acinar carcinoma AR42J-B13 cells; assay: ELISA quantification of insulin secretion of differentiated AR42J-B13 cells; assay type: cell-based, rat; settings: secretion below the detection level
[5] = test system: pancreatic acinar carcinoma AR42 J-B13 cells; settings: known from prior report; cited from earlier work
[6] = test system: pancreatic acinar carcinoma AR42J-B13 cells; assay: Insulin immunofluorescence of AR42J-B13 cells; assay type: cell-based, rat; settings: after 72 hours; conophylline 0.1 μg/ml, HGF 100 pM, activin A 2 nM
Protocol: as §1, with “medium. Subsequently, the cell were sedimented by centrifugation at 1000 rpm for 5 min, trypsin was removed, 10 ml of fresh medium was added, and transferred to be 2.5% to 5% of confluency. Cells were cryopreserved under the condition of 7.5% dimethyl sulfoxide (DMSO).” for “medium.”

[7] = test system: porcine pancreatic cells; assay: Induction of insulin production in porcine pancreatic cells (statement in the description); assay type: cell-based, pig; settings: no conditions given

Molecule: CC[C@@]12C=CCN3CC[C@]4(C(=C(C(=O)OC)C1)Nc1cc5c(cc14)[C@H]1[C@@H](O5)[C@H](O)[C@]4(CC)CC(C(=O)OC)=C5Nc6c(cc(O)c(OC)c6OC)[C@@]56CCN1[C@H]46)[C@H]32 (stereo in doubt) [conophyllidine]
- morphological changes involved in insulin production ([1]; AR42J cells, no concentration given): confirmed to induce morphological changes

Molecule: CC[C@@]12CC(C(=O)OC)=C3Nc4cc5c(cc4[C@@]34CCN(C[C@H]3O[C@H]31)[C@@H]24)[C@@H]1[C@H](O5)[C@@H](O)[C@@]2(CC)CC(C(=O)OC)=C3Nc4c(cc(O)c(OC)c4OC)[C@@]34CCN1[C@@H]24 [conophylline]
- blood glucose levels [2]: apparent decrease in blood glucose levels
- insulin-producing cells colored in red (immunostaining) [3]: only a few insulin-producing cells
- insulin secretion out of cells [4]: incapable of inducing insulin secretion out of cells
- process outgrowth (morphological change) ([1]; conophylline 0.1 to 0.3 μg/ml, alone or with HGF): concentration-dependently induced
- insulin production of AR42J cells [5]: induces insulin production
- insulin release into culture medium [5]: did not release insulin into culture medium

Molecule: NC(=O)c1cccnc1 [nicotinamide, reference compound]
- insulin-producing cells colored in red (immunostaining) [3]: only a few insulin-producing cells

Molecule: HGF: Hepatocyte growth factor (HGF), Sigma
- red coloration of insulin in cells (immunofluorescence) [6]: no red coloration indicating insulin was observed

B1: Activin: activin A, which belongs to the TGF-β superfamily (protein, UniProt P08476 311-426, looked up)
Inhibin beta A chain: GLECDGKVNICCKKQFFVSFKDIGWNDWIIAPSGYHANYCEGECPSHIAGTSGSSLSFHSTVINHYRMRGHSPFANLKSCCVPTKLRPMSMLYYDDGQNIIKKDIQNMIVEECGCS
- inducing insulin production of porcine pancreatic cells [7]: does not exhibit the effect
- insulin production of AR42J cells [5]: capable of inducing AR42J cells to produce insulin
